Measured values published in paper PMC12250302, “Synthesis, Antimicrobial Activities, and Model of Action of Novel Tetralone Derivatives Containing Aminoguanidinium Moiety” (International Journal of Molecular Sciences, 2025).
Converted amounts (≈) assume the structure as drawn.

Legend:
[1] = test system: S. aureus ATCC 29213; assay: MIC and MBC testing, broth microdilution; format: cell-based, Staphylococcus aureus; conditions: Staphylococcus aureus, ATCC29213, S. aureus ATCC 29213; for MIC: 18 h, read-out: MIC; for MBC: read-out: MBC
Summary of the method: (§1)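 Bacteria are grown in MH broth to log phase, diluted to 1 × 10^6 CFU/mL, then added to doubling dilutions of compound. After 18 h incubation at 37 °C, the lowest concentration lacking visible growth is recorded as MIC. Each concentration is run in triplicate.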

[2] = test system: S. aureus, including MRSA; assay: MIC testing, summary over S. aureus strains; format: cell-based; conditions: Staphylococcus aureus
Experimental: (§2) The minimum inhibitory concentration (MIC) of all synthesized compounds was tested by the broth microdilution method. In brief, compounds dissolved in DMSO were diluted twice continuously in a 96-well plate with MH broth. The ESKAPE pathogens (E. coli ATCC 25922, S. aureus ATCC 29213, K. pneumoniae ATCC 700603, A. baumannii ATCC 19606, P. aeruginosa ATCC 27853, and E. faecium ATCC 35667), clinical S. aureus isolates (LMY45, LMY46, LMY47, and LMY48) and methicillin-resistant Staphylococcus aureus (MRSA-1 and MRSA-2) were cultured in MH broth to logarithmic growth phase and then diluted to 1 × 10^6 CFU/mL in MH broth. Subsequently, the diluted bacterial solution was mixed with the diluted compound solution in a 96-well plate and incubated at 37 °C for a duration of 18 h. The MIC of the compounds was recorded as the lowest concentration at which no visible growth was observed. […] Each concentration was replicated thrice.

[3] = test system: MRSA; assay: MIC testing, summary over MRSA strains; format: cell-based; conditions: Staphylococcus aureus; against MRSA
Experimental: as §2

[4] = test system: E. faecium ATCC 35667; assay: MIC and MBC testing, broth microdilution; format: cell-based, Enterococcus faecium; conditions: Enterococcus faecium, ATCC35667, E. faecium ATCC 35667; for MIC: 18 h, read-out: MIC; for MBC: read-out: MBC
Summary of the method: as §1

[5] = test system: E. coli ATCC 25922; assay: MIC and MBC testing, broth microdilution; format: cell-based, Escherichia coli; conditions: Escherichia coli; for MIC: ATCC25922, 18 h, read-out: MIC; for MBC: ATCC25922, read-out: MBC
Summary of the method: as §1

[6] = test system: clinical S. aureus isolate LMY46; assay: MIC and MBC testing, broth microdilution; format: cell-based, Staphylococcus aureus; conditions: Staphylococcus aureus, LMY46; for MIC: 18 h, read-out: MIC; for MBC: read-out: MBC
Summary of the method: (§3)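 Strains grown to logarithmic phase were diluted to 1 × 10^6 CFU/mL, combined with compound two-fold dilution series in MH broth, and incubated at 37 °C for 18 h. MIC and MBC were then recorded, with triplicate wells per concentration.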

[7] = test system: clinical S. aureus isolate LMY45; assay: MIC and MBC testing, broth microdilution; format: cell-based, Staphylococcus aureus; conditions: Staphylococcus aureus, LMY45; for MIC: 18 h, read-out: MIC; for MBC: read-out: MBC
Summary of the method: as §3

[8] = test system: clinical S. aureus isolate LMY47; assay: MIC and MBC testing, broth microdilution; format: cell-based, Staphylococcus aureus; conditions: Staphylococcus aureus, LMY47; for MIC: 18 h, read-out: MIC; for MBC: read-out: MBC
Summary of the method: (§4)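 Log-phase cultures, adjusted to 1 × 10^6 CFU/mL in MH broth, are exposed to twofold serial compound dilutions and held at 37 °C for 18 h. Triplicate per concentration; both inhibitory and bactericidal endpoints are taken.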

[9] = test system: clinical S. aureus isolate LMY48; assay: MIC and MBC testing, broth microdilution; format: cell-based, Staphylococcus aureus; conditions: Staphylococcus aureus, LMY48; for MIC: 18 h, read-out: MIC; for MBC: read-out: MBC
Summary of the method: as §3

[10] = test system: MRSA-2; assay: MIC and MBC testing, broth microdilution; format: cell-based, Staphylococcus aureus; conditions: Staphylococcus aureus, MRSA-2; for MIC: 18 h, read-out: MIC; for MBC: read-out: MBC
Summary of the method: as §4

[11] = test system: MRSA-1; assay: MIC and MBC testing, broth microdilution; format: cell-based, Staphylococcus aureus; conditions: Staphylococcus aureus, MRSA-1; for MIC: 18 h, read-out: MIC; for MBC: read-out: MBC
Summary of the method: as §3

[12] = test system: K. pneumoniae ATCC 700603; assay: MIC and MBC testing, broth microdilution; format: cell-based, Klebsiella pneumoniae; conditions: Klebsiella pneumoniae; for MIC: ATCC700603, 18 h, read-out: MIC; for MBC: ATCC700603, read-out: MBC
Summary of the method: as §1

[13] = test system: A. baumannii ATCC 19606; assay: MIC and MBC testing, broth microdilution; format: cell-based, Acinetobacter baumannii; conditions: Acinetobacter baumannii; for MIC: ATCC19606, 18 h, read-out: MIC; for MBC: ATCC19606, read-out: MBC
Summary of the method: as §1

[14] = test system: P. aeruginosa ATCC 27853; assay: MIC and MBC testing, broth microdilution; format: cell-based, Pseudomonas aeruginosa; conditions: Pseudomonas aeruginosa; for MIC: ATCC27853, 18 h, read-out: MIC; for MBC: ATCC27853, read-out: MBC
Summary of the method: as §1

Row | MIC [1] [µg/mL] | MIC [2] [µg/mL] | MIC [3] [µg/mL] | MIC [4] [µg/mL] | MIC [5] [µg/mL] | MIC [6] [µg/mL] | MIC [7] [µg/mL] | MIC [8] [µg/mL] | MIC [9] [µg/mL] | MIC [10] [µg/mL] | MIC [11] [µg/mL] | SMILES | MBC [1] [µg/mL] | MBC [4] [µg/mL] | MBC [5] [µg/mL] | MBC [6] [µg/mL] | MBC [7] [µg/mL] | MBC [8] [µg/mL] | MBC [9] [µg/mL] | MBC [10] [µg/mL] | MBC [11] [µg/mL] | also measured
1 | 2 (≈ 5.16 µM) | 0.5 to 4 (≈ 1.29 to 10.3 µM) | 1 to 2 (≈ 2.58 to 5.16 µM) | 4 (≈ 10.3 µM) | 4 (≈ 10.3 µM) | 1 (≈ 2.58 µM) | 2 (≈ 5.16 µM) | 2 (≈ 5.16 µM) | 4 (≈ 10.3 µM) | 1 (≈ 2.58 µM) | 1 (≈ 2.58 µM) | [H]/N=C(\N)NN=C1CCCc2cc(OCc3ccc(Br)cc3)ccc21 [Compound 1S, (E)-2-(6-((4-bromobenzyl)oxy)-3,4-dihydronaphthalen-1(2H)-ylidene)hydrazine-1-carboximidamide] | 8 (≈ 20.7 µM) | 8 (≈ 20.7 µM) | 8 (≈ 20.7 µM) | 4 (≈ 10.3 µM) | 4 (≈ 10.3 µM) | 4 (≈ 10.3 µM) | 8 (≈ 20.7 µM) | 4 (≈ 10.3 µM) | 4 (≈ 10.3 µM) | MIC [12]: 16 µg/mL (≈ 41.3 µM); MBC [12]: 16 µg/mL (≈ 41.3 µM); MIC [13]: 8 µg/mL (≈ 20.7 µM); MBC [13]: 16 µg/mL (≈ 41.3 µM); MIC [14]: > 32 µg/mL
2 | 2 (≈ 5.54 µM) | 0.5 to 4 (≈ 1.39 to 11.1 µM) | 1 to 2 (≈ 2.77 to 5.54 µM) | 2 (≈ 5.54 µM) | 4 (≈ 11.1 µM) | 1 (≈ 2.77 µM) | 2 (≈ 5.54 µM) | 2 (≈ 5.54 µM) | 4 (≈ 11.1 µM) | 1 (≈ 2.77 µM) | 2 (≈ 5.54 µM) | [H]/N=C(\N)NN=C1CCCc2cc(OCc3ccc(F)c(Cl)c3)ccc21 [Compound 1U, (E)-2-(6-((3-chloro-4-fluorobenzyl)oxy)-3,4-dihydronaphthalen-1(2H)-ylidene)hydrazine-1-carboximidamide] | 4 (≈ 11.1 µM) | 16 (≈ 44.3 µM) | 16 (≈ 44.3 µM) | 4 (≈ 11.1 µM) | 2 (≈ 5.54 µM) | 4 (≈ 11.1 µM) | 8 (≈ 22.2 µM) | 4 (≈ 11.1 µM) | 32 (≈ 88.7 µM) | MIC [12]: 8 µg/mL (≈ 22.2 µM); MBC [12]: 32 µg/mL (≈ 88.7 µM); MIC [13]: 4 µg/mL (≈ 11.1 µM); MBC [13]: 16 µg/mL (≈ 44.3 µM); MIC [14]: 16 µg/mL (≈ 44.3 µM); MBC [14]: > 32 µg/mL

Row | SMILES | MIC [1] [µg/mL] | MIC [2] [µg/mL] | MIC [3] [µg/mL] | MIC [4] [µg/mL] | MIC [5] [µg/mL] | MIC [6] [µg/mL] | MIC [7] [µg/mL] | MIC [8] [µg/mL] | MIC [9] [µg/mL] | MIC [10] [µg/mL] | MIC [11] [µg/mL] | MBC [1] [µg/mL] | MBC [4] [µg/mL] | MBC [5] [µg/mL] | MBC [6] [µg/mL] | MBC [7] [µg/mL] | MBC [8] [µg/mL] | MBC [9] [µg/mL] | MBC [10] [µg/mL] | MBC [11] [µg/mL] | also measured
3 | [H]/N=C(\N)NN=C1CCCc2cc(OCCCC)ccc21 [Compound 2A, (E)-2-(6-butoxy-3,4-dihydronaphthalen-1(2H)-ylidene)hydrazine-1-carboximidamide] | 4 (≈ 14.6 µM) | 0.5 to 4 (≈ 1.82 to 14.6 µM) | 1 to 2 (≈ 3.64 to 7.29 µM) | 8 (≈ 29.2 µM) | 16 (≈ 58.3 µM) | 2 (≈ 7.29 µM) | 2 (≈ 7.29 µM) | 2 (≈ 7.29 µM) | 1 (≈ 3.64 µM) | 1 (≈ 3.64 µM) | 2 (≈ 7.29 µM) | > 32 | 32 (≈ 117 µM) | > 32 | 4 (≈ 14.6 µM) | 4 (≈ 14.6 µM) | 2 (≈ 7.29 µM) | 2 (≈ 7.29 µM) | 2 (≈ 7.29 µM) | 2 (≈ 7.29 µM) | MIC [12]: 16 µg/mL (≈ 58.3 µM); MBC [12]: > 32 µg/mL; MIC [13]: 8 µg/mL (≈ 29.2 µM); MBC [13]: 16 µg/mL (≈ 58.3 µM); MIC [14]: 32 µg/mL (≈ 117 µM); MBC [14]: 32 µg/mL (≈ 117 µM)
